System: endocardial tissue slabs (incorporating the construct injection site)
Set-up: species or system dog

SMILES	effect on rate of isoproterenol-enhanced rhythms
NC1=N[C@H](O)[C@H]2[C@H]3O[C@]4(O)O[C@@H]([C@@H](O)[C@@]2(N1)[C@@H]4O)[C@]3(O)CO [Tetrodotoxin, tetrodotoxin]	reductions in rate
COc1cc2c(cc1OC)CC(=O)N(CCCN(C)C[C@H]1Cc3cc(OC)c(OC)cc31)CC2 [ivabradine]	reductions in rate

Source: patent US20160333071A1 (THE TRUSTEES OF COLUMBIA UNIVERSITY IN THE CITY OF NEW YORK, priority 2014, published 2016)
